Reference: patent publication US20140179681A1, “METHODS AND COMPOSITIONS OF TARGETED DRUG DEVELOPMENT” (priority 2010, published 2014)
Where a name gives a salt, the structure may show the parent alone. Read-outs that look alike come from different tables or passages of the source.

Columns and labels:
MDBK line = assay: MTT Cell Proliferation Assay, MDBK cells; format: cell-based, bovine
How it was run: (§1)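 Viability was measured by mitochondrial MTT reduction after cells were exposed to compound for 3 days in reduced-serum medium. Inhibition was calculated per plate against 0.5% DMSO controls.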

EGFR = molecular target: T1, EGFR (Homo sapiens, UniProt P00533); assay: EGFR in-cell Western (ICW) screening protocol (EGFR inhibition assay); format: cell-based; design: ICW 1 / ICW 2 / ICW Avg: unit not given here; settings: for ICW Avg / ICW 1 / ICW 2: ICW assay; for ICW Avg: average of runs 1 and 2; for ICW 1: run 1; for ICW 2: run 2; for ICW Screen: Table 11, % Inhibition of EGF dependent EGFR phosphorylation in A431 cells, compound 125 μM in assay
T1 construct: host or cells: A431
How it was run: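 Serum-starved A431 cells (2 h) were pretreated with compound for 4 h at 37° C, then stimulated with EGF (10 ng/ml final, or 6.6 or 12.5 ng/ml in some runs) for 10 min. After formaldehyde fixation, phospho-EGFR (Tyr1173, or Tyr1045 in some runs) and total EGFR were detected by in-cell Western immunostaining.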

[1] = tested on: epithelial carcinoma A431 cell line; assay: MTT Cell Proliferation Assay, A431 cells; format: cell-based; settings: for MTT Assay IC50(A431/MDBK): ratio in parentheses: ratio MDBK IC50 / A431 IC50 (selectivity)
How it was run: as §1

[2] = MDBK cells, second value of cell, read-out: MTT Assay IC50(A431/MDBK): MDBK
[3] = A431 cells, first value of cell, read-out: MTT Assay IC50(A431/MDBK): A431
[4] = Bos taurus, MDBK, MDBK cells, second value of cell, read-out: MTT Assay IC50(A431/MDBK): MDBK
[5] = Homo sapiens, A-431, A431 cells, first value of cell, read-out: MTT Assay IC50(A431/MDBK): A431
[6] = Bos taurus, MDBK, Table 11, second of x/y(ratio): MDBK, unit not printed (doses in μM), read-out: MTT Screen (second value)
[7] = Homo sapiens, A-431, Table 11, first of x/y(ratio): A431, unit not printed (doses in μM), read-out: MTT Screen (first value)
[8] = Homo sapiens, A-431, Table 11, first of x/y(ratio): A431, unit inferred, read-out: MTT Follow-up (first value)
[9] = Homo sapiens, A-431, 72 h, Table 11, first of x/y(ratio): A431, unit not printed (doses in μM), read-out: MTT Screen (first value)

T1 sequence (P00533 25-1210): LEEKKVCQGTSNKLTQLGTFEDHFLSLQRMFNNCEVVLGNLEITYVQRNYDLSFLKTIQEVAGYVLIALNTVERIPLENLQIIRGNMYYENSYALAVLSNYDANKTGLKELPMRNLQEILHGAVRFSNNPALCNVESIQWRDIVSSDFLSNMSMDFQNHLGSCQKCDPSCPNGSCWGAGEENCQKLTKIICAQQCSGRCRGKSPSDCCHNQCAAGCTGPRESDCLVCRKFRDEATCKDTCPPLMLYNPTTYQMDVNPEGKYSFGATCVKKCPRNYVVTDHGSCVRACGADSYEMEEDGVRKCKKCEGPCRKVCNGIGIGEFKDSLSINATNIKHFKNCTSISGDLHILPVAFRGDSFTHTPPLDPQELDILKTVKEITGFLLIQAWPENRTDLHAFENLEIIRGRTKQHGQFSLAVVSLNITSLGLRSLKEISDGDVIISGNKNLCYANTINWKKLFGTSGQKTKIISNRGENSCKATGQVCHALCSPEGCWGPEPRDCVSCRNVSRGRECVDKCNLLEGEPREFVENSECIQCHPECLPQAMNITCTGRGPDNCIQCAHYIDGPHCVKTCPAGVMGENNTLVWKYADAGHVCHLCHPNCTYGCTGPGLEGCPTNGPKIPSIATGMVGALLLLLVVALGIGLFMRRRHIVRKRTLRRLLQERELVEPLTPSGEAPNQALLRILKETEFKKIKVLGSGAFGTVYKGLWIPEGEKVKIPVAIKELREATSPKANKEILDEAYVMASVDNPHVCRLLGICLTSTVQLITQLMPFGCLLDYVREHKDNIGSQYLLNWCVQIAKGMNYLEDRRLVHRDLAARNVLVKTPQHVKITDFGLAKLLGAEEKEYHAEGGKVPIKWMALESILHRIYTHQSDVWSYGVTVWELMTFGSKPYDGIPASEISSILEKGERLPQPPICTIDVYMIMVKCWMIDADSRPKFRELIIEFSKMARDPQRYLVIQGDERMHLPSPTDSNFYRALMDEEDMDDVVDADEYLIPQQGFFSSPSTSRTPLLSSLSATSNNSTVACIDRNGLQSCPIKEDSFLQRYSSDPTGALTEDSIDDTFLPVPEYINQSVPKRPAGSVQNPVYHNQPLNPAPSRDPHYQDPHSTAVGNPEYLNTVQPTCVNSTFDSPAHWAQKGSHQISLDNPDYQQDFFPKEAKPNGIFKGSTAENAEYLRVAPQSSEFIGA

Row | SMILES | ICW Avg (EGFR) | ICW 1 (EGFR) | ICW 2 (EGFR) | IC50 [1, 5] [µM] | MTT Assay IC50(A431/MDBK): ratio in parentheses [1] | IC50 (MDBK line; [4]) [µM] | also measured
1 | Cc1nc(Nc2nc(CSc3ccccn3)cc(=O)[nH]2)nc2ccccc12 [12623 + TFA] | 28.49 | 21.11 | 35.88 | 37.2 | 0.46 | 17 | –
2 | CCCc1c[nH]c(Nc2nc(-c3ccccc3)c3cc(Cl)ccc3n2)nc1=O [12660 + TFA] | 61.63 | 49.87 | 73.40 | 41.5 | 0.99 | 41.1 | –
3 | CCCc1cc(=O)[nH]c(Nc2nc(C)c3ccc(OC)cc3n2)n1 [12669 + TFA] | 25.42 | 11.73 | 39.10 | 49.3 | 0.74 | 36.7 | –
4 | CCOc1ccc2nc(Nc3nc(C)cc(-c4ccccc4)n3)nc(C)c2c1 [12688 + TFA] | 36.40 | 45.86 | 26.95 | 5.04 | 0.71 | 3.58 | –
5 | Cc1ccc2nc(Nc3nc(C)cc(-c4ccccc4)n3)nc(C)c2c1 [12689 + TFA] | 30.58 | 44.07 | 17.08 | 44.1 | 0.99 | 43.6 | –
6 | Cc1ccc2c(O)nc(Nc3nc(C)cc(-c4ccccc4)n3)nc2c1 [12693 + TFA] | 57.18 | 40.36 | 74.00 | 9.01 | 0.76 | 6.88 | –
7 | CCc1c(C)nc(Nc2nc(C)c3cccc(OC)c3n2)[nH]c1=O [12738 + TFA] | 45.35 | 53.67 | 37.02 | – | 0.54 | – | IC50 (MDBK line; [2]): 24.6 µM; IC50 [1, 3]: 45.4 µM
8 | Cc1nc(Nc2nc(CSc3ccccn3)cc(=O)[nH]2)nc2ccccc12 [12740 + TFA] | 28.34 | 28.77 | 27.91 | – | 0.48 | – | IC50 (MDBK line; [2]): 23.6 µM; IC50 [1, 3]: 49.4 µM
9 | O=C(NC(=S)Nc1ccc(S(=O)(=O)NCCc2ccccc2)cc1)C1CC1 [AD4-10120] | – | – | – | – | – | – | IC50 (MDBK line; Bos taurus, MDBK, second value of 'a/b (c)', taken as MDBK cells, read-out: MTT Screen, second value of cell): 39.3 µM; ICW Screen (ICW Inhibition) (EGFR): 39.873; IC50 ([1]; Homo sapiens, A-431, first value of 'a/b (c)', taken as A431 cells, read-out: MTT Screen, first value of cell): 22.8 µM
10 | CCc1cc2c(CN3CCN(c4ccc(OC)cc4)CC3)cc(=O)oc2cc1O [AD4-10171] | – | – | – | – | – | – | IC50 (MDBK line; [6]): 21 µM; ICW Screen (EGFR): 39.389; IC50 [1, 7]: 16.5 µM
11 | Cc1cc(C)c2oc(=O)cc(CN3CCN(Cc4ccc5c(c4)OCO5)CC3)c2c1 [AD4-10174] | – | – | – | – | – | – | IC50 (MDBK line; Bos taurus, MDBK, Table 11, second of x/y(ratio): MDBK, unit inferred, read-out: MTT Follow-up (second value)): 101 µM; IC50 (MDBK line; [6]): 8.58 µM; ICW Screen (EGFR): 45.85; IC50 [1, 8]: 4.42 µM; IC50 [1, 7]: 2.26 µM
12 | O=c1cc(CN2CCN(Cc3ccc4c(c3)OCO4)CC2)c2cc3c(cc2o1)CCC3 [AD4-10179] | – | – | – | – | – | – | IC50 (MDBK line; [6]): 13.9 µM; ICW Screen (EGFR): 34.742; IC50 [1, 9]: 13.2 µM
13 | O=c1cc(CN2CCN(Cc3ccccc3)CC2)c2cc(Cl)c(O)cc2o1 [AD4-10180] | – | – | – | – | – | – | IC50 (MDBK line; [6]): 36.3 µM; ICW Screen (EGFR): 32.1; IC50 [1, 9]: 16.7 µM
14 | Cc1ccc2c(CN3CCN(Cc4ccc5c(c4)OCO5)CC3)cc(=O)oc2c1C [AD4-10181] | – | – | – | – | – | – | IC50 (MDBK line; [6]): 16 µM; ICW Screen (EGFR): 34.604; IC50 [1, 9]: 2.61 µM
15 | Cc1cc(C)c2c(CN3CCN(Cc4ccc5c(c4)OCO5)CC3)cc(=O)oc2c1 [AD4-10182] | – | – | – | – | – | – | IC50 (MDBK line; [6]): 43.3 µM; MTT Follow-up (second value) (MDBK line; Table 11, second of x/y(ratio): MDBK, unit not given): non- convergent; ICW Screen (EGFR): 39.51; IC50 [1, 9]: 6.78 µM; IC50 [1, 8]: 3.75 µM
16 | CCc1cc2c(CN3CCN(Cc4ccccc4)CC3)cc(=O)oc2cc1O [AD4-10186] | – | – | – | – | – | – | IC50 (MDBK line; [6]): 45.7 µM; ICW Screen (EGFR): 47.518; IC50 [1, 7]: 40.1 µM

More lines, main results first:

Row | ICW Avg (EGFR) | ICW 1 (EGFR) | ICW 2 (EGFR) | IC50 [1, 5] [µM] | MTT Assay IC50(A431/MDBK): ratio in parentheses [1] | SMILES | IC50 (MDBK line; [4]) [µM] | also measured
17 | 57.36 | 69.21 | 45.51 | – | – | CCCc1c(C)nc(Nc2nc(C)c3cc(C)cc(C)c3n2)[nH]c1=O [12612 + TFA] | – | IC50 (MDBK line; [2]): 79.2 µM; IC50 [1, 3]: 48.5 µM
18 | 27.21 | 20.34 | 34.09 | 19.4 | 0.39 | CCCc1c(C)nc(Nc2nc(C)c3cc(C)c(C)cc3n2)[nH]c1=O [12614 + TFA] | 7.56 | –
19 | 34.27 | 30.45 | 38.10 | 21.2 | 0.80 | CCCc1c(C)nc(Nc2nc(C)c3cccc(C)c3n2)[nH]c1=O [12625 + TFA] | 17 | –
20 | 25.89 | 19.83 | 31.95 | 12.7 | 0.85 | Cc1ccc2nc(Nc3nc(=O)c(C)c(C)[nH]3)nc(C)c2c1 [12629 + TFA] | 10.7 | –
21 | 26.02 | 17.06 | 34.97 | 11.7 | 0.75 | Cc1cc2nc(Nc3nc(=O)c(C)c(C)[nH]3)nc(C)c2cc1C [12630 + TFA] | 8.75 | –
22 | 25.06 | 16.45 | 33.67 | – | 0.66 | COCc1cc(=O)nc(Nc2nc(C)c3cc(C)cc(C)c3n2)[nH]1 [12644 + TFA] | – | IC50 (MDBK line; [2]): 30.9 µM; IC50 [1, 3]: 46.9 µM
23 | 64.97 | 60.00 | 69.95 | 6.49 | 0.97 | Cc1cc(C)c2nc(Nc3nc(=O)c(C)c(C)[nH]3)nc(C)c2c1 [12645 + TFA] | 6.29 | –
24 | 36.07 | 37.92 | 34.22 | – | 0.79 | CCCc1cc(=O)[nH]c(Nc2nc(C)c3cc(C)c(C)cc3n2)n1 [12654 + TFA] | 12.6 | IC50 [1, 3]: 16 µM
25 | 44.17 | 51.06 | 37.29 | – | 0.98 | CCc1c(C)nc(Nc2nc(C)c3ccc(C)cc3n2)[nH]c1=O [12665 + TFA] | – | IC50 (MDBK line; [2]): 17.2 µM; IC50 [1, 3]: 17.5 µM
26 | 36.77 | 48.16 | 25.37 | 14.5 | 1.18 | Cc1ccc2nc(Nc3nc(C)c(CCC(C)C)c(=O)[nH]3)nc(C)c2c1 [12666 + TFA] | 17.1 | –
27 | 52.80 | 44.70 | 60.90 | – | 0.68 | CCCc1cc(=O)[nH]c(Nc2nc(C)c3cc(C)c(C)cc3n2)n1 [12673 + TFA] | – | IC50 (MDBK line; [2]): 22.5 µM; IC50 [1, 3]: 33.1 µM
28 | 40.88 | 54.37 | 27.38 | – | 0.71 | CCc1c(C)nc(Nc2nc(C)c3ccc(C)cc3n2)[nH]c1=O [12683 + TFA] | – | IC50 (MDBK line; [2]): 45.3 µM; IC50 [1, 3]: 63.4 µM
29 | 28.28 | 40.81 | 15.75 | 25.7 | 0.76 | CCOc1ccc2nc(Nc3nc(C)c(CCC(C)C)c(=O)[nH]3)nc(C)c2c1 [12684 + TFA] | 19.5 | –
30 | 66.62 | 67.34 | 65.91 | – | 1.07 | COc1cccc2c(C)nc(Nc3nc(C)c(C)c(=O)[nH]3)nc12 [12723 + TFA] | – | IC50 (MDBK line; [2]): 9.99 µM; IC50 [1, 3]: 9.33 µM
31 | 64.72 | 69.46 | 59.98 | 17.9 | 0.85 | CCOc1cccc2c(C)nc(Nc3nc(C)c(C)c(=O)[nH]3)nc12 [12735 + TFA] | 15.3 | –
32 | 33.57 | 42.10 | 25.04 | 63.2 | 0.44 | Cc1ccc2nc(Nc3nc(C(C)C)cc(=O)[nH]3)nc(C)c2c1 [12741 + TFA] | 28 | –
33 | 25.65 | 9.17 | 42.12 | – | 1.43 | CCCCc1c(C)nc(Nc2nc(C)c3ccccc3n2)[nH]c1=O [12743 + TFA] | – | IC50 (MDBK line; [2]): 9.86 µM; IC50 [1, 3]: 6.88 µM
34 | 25.32 | 21.34 | 29.30 | 29.7 | 0.64 | CCCCc1c(C)nc(Nc2nc(C)c3ccc(C)cc3n2)[nH]c1=O [12776 + TFA] | 19 | –
